Experiments:
[1] = target: T1, Cholinesterase (Equus caballus, UniProt P81908)
Description: Inhibition of equine serum BChE using acetylcholine as substrate preincubated for 5 mins prior to substrate addition measured after 2 mins by Ellman's method

[2] = target: T2, Acetylcholinesterase (Electrophorus electricus, UniProt O42275)
Description: Inhibition of electric eel AChE using acetylcholine as substrate preincubated for 5 mins prior to substrate addition measured after 2 mins by Ellman's method

[3] = target: T1, Cholinesterase; experiment: Competitive inhibition of equine serum BChE by Lineweaver Burk reciprocal plot analysis in presence of acetylcholine
[4] = target: T2, Acetylcholinesterase; experiment: Mixed-type inhibition of electric eel AChE by Lineweaver Burk reciprocal plot analysis in presence of acetylcholine
[5] = buffer, pH 7.4, 4 h
Description: Chemical stability of the compound in phosphate buffer assessed as nitrite release after 4 hrs at pH 7.4 by Griess method

[6] = Cytotoxicity against Wistar rat primary cortical neurons at 1 uM after 24 hrs by MTT assay; assay type: cell-based; details: cerebral cortex neuron

T2 sequence (O42275 whole entry): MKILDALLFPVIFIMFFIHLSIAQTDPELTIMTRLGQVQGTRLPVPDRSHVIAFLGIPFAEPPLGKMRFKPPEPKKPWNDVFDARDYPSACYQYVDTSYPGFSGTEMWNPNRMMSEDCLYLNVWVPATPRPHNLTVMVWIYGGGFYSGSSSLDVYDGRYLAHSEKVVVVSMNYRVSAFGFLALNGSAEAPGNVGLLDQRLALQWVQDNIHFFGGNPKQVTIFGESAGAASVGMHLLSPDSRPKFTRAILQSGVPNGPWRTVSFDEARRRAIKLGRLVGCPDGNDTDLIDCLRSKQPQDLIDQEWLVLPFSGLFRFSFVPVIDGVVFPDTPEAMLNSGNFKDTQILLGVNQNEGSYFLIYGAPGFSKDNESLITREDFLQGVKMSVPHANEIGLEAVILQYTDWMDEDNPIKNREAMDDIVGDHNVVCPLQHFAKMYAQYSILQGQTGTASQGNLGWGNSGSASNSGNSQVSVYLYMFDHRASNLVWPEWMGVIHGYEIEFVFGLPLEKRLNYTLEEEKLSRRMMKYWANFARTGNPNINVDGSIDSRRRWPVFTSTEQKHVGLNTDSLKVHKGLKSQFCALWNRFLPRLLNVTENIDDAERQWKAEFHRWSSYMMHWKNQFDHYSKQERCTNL
T1 sequence (P81908 whole entry): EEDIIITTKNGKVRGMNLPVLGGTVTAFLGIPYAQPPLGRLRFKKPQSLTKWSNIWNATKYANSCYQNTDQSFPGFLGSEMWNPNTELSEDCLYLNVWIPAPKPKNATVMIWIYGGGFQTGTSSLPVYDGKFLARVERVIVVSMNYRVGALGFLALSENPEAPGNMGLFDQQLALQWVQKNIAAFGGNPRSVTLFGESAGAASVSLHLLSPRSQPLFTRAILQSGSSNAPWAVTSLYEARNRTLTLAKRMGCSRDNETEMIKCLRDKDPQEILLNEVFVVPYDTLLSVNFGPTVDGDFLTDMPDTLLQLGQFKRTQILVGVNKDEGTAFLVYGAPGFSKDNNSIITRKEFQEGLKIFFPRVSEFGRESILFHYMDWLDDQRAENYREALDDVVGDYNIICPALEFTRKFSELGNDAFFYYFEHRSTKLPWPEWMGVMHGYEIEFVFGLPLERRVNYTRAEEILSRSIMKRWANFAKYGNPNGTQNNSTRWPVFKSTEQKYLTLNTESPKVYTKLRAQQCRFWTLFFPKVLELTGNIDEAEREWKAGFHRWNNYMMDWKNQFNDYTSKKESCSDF

Row | Compound | IC50 [1] [nM] | IC50 [2] [nM] | Ki [3] [nM] | Ki [4] [nM] | Drug metabolism [5] [µg/mL] | Activity [6]
1 | CC(C(=O)NCCCCCCNc1c2c(nc3ccccc13)CCCC2)c1ccc(-c2ccccc2)c(F)c1 (configuration not stated) | 3.7 | 19.3 |  |  |  | 
2 | CC(C(=O)NCCCCCCCCNc1c2c(nc3ccccc13)CCCC2)c1ccc(-c2ccccc2)c(F)c1 (configuration not stated) | 2.1 | 34.5 |  |  |  | 
3 | CC(C(=O)NCCCCCCNc1c2c(nc3ccccc13)CCCC2)c1ccc(-c2ccc(OCCO[N+](=O)[O-])cc2)c(F)c1 (configuration not stated) | 2.5 | 9.1 | 1.7 | 16.1 | 0.348 | 
4 | CC(C(=O)NCCCCCCNc1c2c(nc3ccccc13)CCCC2)c1ccc(-c2ccc(OCCCO[N+](=O)[O-])cc2)c(F)c1 (configuration not stated) | 2.4 | 18.7 |  |  | 0.353 | 
5 | CC(C(=O)NCCCCCCNc1c2c(nc3ccccc13)CCCC2)c1ccc(-c2ccc(OCCCCO[N+](=O)[O-])cc2)c(F)c1 (configuration not stated) | 1.3 | 27.4 |  |  | 0.36 | 
6 | CC(C(=O)NCCCCCCNc1c2c(nc3ccccc13)CCCC2)c1ccc(-c2ccc(OCCCCCCO[N+](=O)[O-])cc2)c(F)c1 (configuration not stated) | 0.6 | 31.1 |  |  | 0.283 | Non-toxic
7 | CC(C(=O)NCCCCCCCCNc1c2c(nc3ccccc13)CCCC2)c1ccc(-c2ccc(OCCO[N+](=O)[O-])cc2)c(F)c1 (configuration not stated) | 1 | 12.5 |  |  | 0.565 | 
8 | CC(C(=O)NCCCCCCCCNc1c2c(nc3ccccc13)CCCC2)c1ccc(-c2ccc(OCCCO[N+](=O)[O-])cc2)c(F)c1 (configuration not stated) | 1.6 | 30.6 |  |  | 0.353 | 
9 | CC(C(=O)NCCCCCCCCNc1c2c(nc3ccccc13)CCCC2)c1ccc(-c2ccc(OCCCCO[N+](=O)[O-])cc2)c(F)c1 (configuration not stated) | 1.3 | 70.9 |  |  | 0.36 | 
10 | CC(C(=O)NCCCCCCCCNc1c2c(nc3ccccc13)CCCC2)c1ccc(-c2ccc(OCCCCCCO[N+](=O)[O-])cc2)c(F)c1 (configuration not stated) | 1.5 | 226 |  |  | 0.34 | 
11 | O=[N+]([O-])O[C@@H]1CO[C@H]2[C@@H]1OC[C@@H]2O [ISOSORBIDE MONONITRATE] |  |  |  |  | 0.412 | 

From ChEMBL document CHEMBL2375273, “Design, synthesis and evaluation of tacrine-flurbiprofen-nitrate trihybrids as novel anti-Alzheimer's disease agents” (Bioorg Med Chem, 2013)
